One series concerns opto-α-syn SH-SY5Y cells. Kind of series: OASIS-based high-content imaging assay of light-induced α-syn aggregation (5G4 staining, Aggregates Induction Score). Type of series: cell-based, human. How it is done: The opto-α-syn expressing SH-SY5Y cells were seeded in 96-well black flat bottom imaging microplates (Falcon) at 30,000 cells per well in 100 μL of complete media using E1-ClipTip electronic multichannel pipette (Thermo Fisher Scientific) and incubated in 37° C. and 5% CO2 humidified incubator. After 18 h of incubation, 10 μL of 10 μM compounds (column 2 to 10) or 1% DMSO (column 1 and 12) were added (final concentration of DMSO is 0.1%). In order to induce aggregations, the plates were illuminated with blue light (26 μW/mm^2) on customized blue light illumination 96-well plates for 2 h. Afterward, cells were fixed in 4% paraformaldehyde (PFA) for 15 min and stained with the aggregated-α-syn antibody (5G4) after permeabilization with 0.1% Triton X-100/0.5% BSA/PBS solution. […] To analyze images, the automated aggregation quantification algorithm and cell counting algorithm in the form of macro are developed using ImageJ software. Briefly, the algorithm includes the inversion, subtracting background, threshold selection, analyzing particles with ranged size and circularity. The Aggregates Induction Score (AIS) is calculated using, the following equation: […]
where N^agg is the number of aggregates, ^Ntotal is the number of total cells. The AIS in each well is normalized by the AIS in positive control which is set as 1.0. […] The hit selection strategy was based on calculated AIS; hits were defined as AIS<0.5. […] Two independent experiments were performed, and total 10 images per well are analyzed to calculate AIS.
As illustrated in FIGS. 8A-8E, high-content imaging screening with the optogenetic α-syn aggregation system was performed, following the schematic representation of the process of high-content imaging (HCI) screening with optogenetics-assisted method of alpha-synuclein aggregation induction system (OASIS) (FIG. 8A). SH-SY5Y cells expressing opto-α-syn were in dark or exposed to blue light (26 μW/mm^2 at 470 nm, 1 Hz, 1 s) for 1.5 h under 96-well plate culture conditions, and then immunostained with 5G4 antibody. The equation of Aggregates Induction Score (AIS) (FIG. 8B) was used for the calculation of Z′-factor for HCI screening with OASIS (FIG. 8C). […] Arrow represents the degree of separation (Z′-factor) between light-illuminated and darkness controls. […] Detailed information of numbered compounds was described in Table 1. One-way ANOVA followed by Dunnett's post hoc test (n=10 or 20, 5 or 10 images each from two independent experiments). *P<0.05, **P<0.01, ***P<0.001, ****P<0.0001.
As illustrated in FIGS. 9A-9B, high-content imaging screening with the optogenetic α-syn aggregation system was performed. The measurement of 5G4^+ aggregates in opto-mock or opto-α-syn SH-SY5Y neuronal cells was assessed. Cells were in dark or exposed to blue light (26 μW/mm^2 at 470 nm, 1 Hz, 1 s) for 1.5 h, and then immunostained with 5G4 antibody. […] Images were converted to grayscale, and a threshold was adjusted to exclude the background based on the size of particles. Once the value of threshold was determined, all the images were applied with the fixed threshold, and then the number of aggregates was measured (FIG. 9A). Number of DAPI from the original images were counted (FIG. 9B). Representative images of opto-α-syn SH-SY5Y neuronal cells treated with 19 compounds under 24-well plate culture conditions were imaged. SH-SY5Y cells expressing opto-α-syn were in dark or exposed to blue light (34 μW/mm^2 at 470 nm, 1 Hz, 0.5 s) for 1.5 h, and then immunostained with 5G4 antibody.

A further series has as its system α-syn PFF injected mice. Briefly: In vivo intrastriatal α-syn PFF mouse model, oral BAG 956 (behaviour, histology, biochemistry). How it is done:
To test the neuroprotective potential of BAG 956, in vivo α-syn PFF mouse model was used for a short-term period. […] Next, BAG 956 efficacy was validated for long-term treatment on α-syn PFF mouse model by comprehensive behavioral and biochemical assays. Behavioral analysis was performed to evaluate the behavioral defect elicited by intrastriatal α-syn PFF injection and any restoration of behavioral dysfunction by oral administration of BAG 956 for 6 months at a low (2 mg/kg) or high (10 mg/kg) concentration after one-month recovery from α-syn PFF injection. PBS injected mice were treated vehicle or BAG956^high (10 mg/kg), whereas α-syn PFF injected mice were orally administered with vehicle, BAG 956^low (2 mg/kg), or BAG956^high (10 mg/kg) (FIG. 13A). […] The open field test (OFT) and elevated plus maze (EPM) were performed to evaluate locomotion, exploration, and anxiety behaviors. […] Next, hippocampal- or amygdala-dependent learning and memory based contextual or cued fear conditioning tests were performed. […] To examine whether the oral administration of BAG 956 could rescue the loss of DA neurons induced by intrastriatal α-syn PFF injection, the number of TH-positive neurons in the substantia nigra pars compacta (SNpc) was measured via an unbiased stereological counting analysis.

Series [1] relates to PI3K-PDK1/AKT/mTOR signaling pathway. Kind of series: PI3K/PDK1 downstream target phosphorylation in α-syn PFF-treated mouse primary neurons. The class given is cell-based. An excerpt:
Since PI3K-PDK1/AKT/mTOR signaling pathway plays a critical role in regulation of autophagy, it was investigated the effects of BAG 956 treatments on PFF models. […] Taken together, BAG 956 may act as an autophagy-enhancing drug through inhibition of the PI3K-PDK1/AKT/mTOR signaling pathway (FIG. 18I).

For a further series, the system named is tau-PFF injected mice. Kind of series: tau-PFF injected mice, AT8 immunofluorescence in dentate gyrus. The class given is in vivo. The protocol:
To find in vivo efficacy in a pilot exponential set and set a drug dosage, an in vivo experiment with the tau-PFF injected mice with DMSO or BAG treatment ([…]) was performed. Intraperitoneal injection of different concentrations (0, 5, 10 mg/kg) of BAG was given for one month, once every two days. Immunofluorescence staining results of AT8 in the dentate gyrus of C57bl/6j mice (3 per group) after injection of K18-tau PFF (5 μg/kg) into the hippocampus for two months was performed (data not shown).

Setting [2] is: oral, 6 months, both 2 mg/kg and 10 mg/kg.

On to `Cc1nc2cnc3ccc(C#Cc4cccnc4)cc3c2n1-c1ccc(C(C)(C)C#N)cc1` [BAG 956], for which the “AIS compared to blue light-illuminated DMSO control” value with opto-α-syn SH-SY5Y cells (two independent experiments, 24-well culture conditions, blue light stimulation) was “significant decrease”. Also, the “AIS, aggregates induction score” value in the series with opto-α-syn SH-SY5Y cells (validation of 19 hits, 24-well plates, blue light, AIS normalized to positive control (blue light, DMSO) set as 1.0) is 0.34. In addition, the “pathologic pSer129-α-syn immunoreactivity in TH-positive neurons of the SN (IHC)” value in the series on α-syn PFF injected mice (long-term oral, 10 mg/kg) is “significantly rescued”. Further, in the series with α-syn PFF injected mice (oral, 10 mg/kg), the “number of TH- and Nissl-positive stained DA neurons in SNpc (stereological counting)” value is reported as “recovered”; the “protein levels of TH in ventral midbrain and striatum” value is on record as “rescued”; the “striatal TH-positive fiber density (IHC)” value was “rescued”. In addition, in the series on α-syn PFF injected mice (oral, 6 months, 2 mg/kg or 10 mg/kg, all groups), the endpoint body mass entry is “No endpoint body mass differences”. In the series on α-syn PFF injected mice (oral, 6 months, 10 mg/kg), the “time spent, number of entries in the far zone of the open arm of the EPM” value was “significantly restored” and the “time spent, number of entries, travelled distance in the center zone of the OFT” value is “significantly restored”. For the same molecule, in the series with α-syn PFF injected mice (setting [2]), the “contextual or cued fear conditioning: total freezing time and freezing episode” value is “recovered”; the “fore- and hind-limb grip strength” value is “dramatically recovered”; the “latency to fall from the rotarod test” value is reported as “dramatically recovered”. Moreover, the “levels of pS129-α-syn in the TX-insoluble fraction of ventral midbrain (WB)” value with α-syn PFF injected mice (oral, both 2 mg/kg and 10 mg/kg) is recorded as “significantly reduced”. Moreover, the “Phosphorylation of PDK1 downstream targets PI3K, AKT, S6K, and mTOR” value in series [1] is on record as “significantly reduced”. Moreover, the toxicity entry with tau-PFF injected mice (10 μg/kg dosage as printed) is on record as “without noticeable toxicity”. Moreover, in the series with tau-PFF injected mice (intraperitoneal, once every two days for one month, 5 and 10 mg/kg), the “levels of the AT8+ phosphorylated-tau” value is reported as “significantly decreased”.

These data come from patent publication US20260023070A1, “OPTOGENETIC ALPHA-SYNUCLEIN AGGREGATION SYSTEM-BASED COMPOUND SCREENING PLATFORM IN PD-hiPSC-mDA NEURONS” (The Johns Hopkins University, priority 2022, published 2026).
